Measurements as given in ChEMBL document CHEMBL1129891, “Synthesis and cytotoxic activity of alkylidene- and alkyl-substituted camptothecins” (Bioorg Med Chem Lett, 1997).
One block for each compound: values may come before it.

What was measured:
L1210 = experiment: Concentration required to inhibit 50% of cell growth in L1210 murine leukemia cell line after 48 hr continuous treatment; type: functional, cell-based; settings: Mus musculus, L1210, 48 h
DNA topoisomerase 1 = target: T1, DNA topoisomerase 1 (Homo sapiens, UniProt P11387); experiment: Concentration required to inhibit 50% relaxation of 250 ng of SV40 DNA obtained with 0.5 I.U topoisomerase I at 37 degrees C for 30 min
T1 sequence (P11387 whole entry): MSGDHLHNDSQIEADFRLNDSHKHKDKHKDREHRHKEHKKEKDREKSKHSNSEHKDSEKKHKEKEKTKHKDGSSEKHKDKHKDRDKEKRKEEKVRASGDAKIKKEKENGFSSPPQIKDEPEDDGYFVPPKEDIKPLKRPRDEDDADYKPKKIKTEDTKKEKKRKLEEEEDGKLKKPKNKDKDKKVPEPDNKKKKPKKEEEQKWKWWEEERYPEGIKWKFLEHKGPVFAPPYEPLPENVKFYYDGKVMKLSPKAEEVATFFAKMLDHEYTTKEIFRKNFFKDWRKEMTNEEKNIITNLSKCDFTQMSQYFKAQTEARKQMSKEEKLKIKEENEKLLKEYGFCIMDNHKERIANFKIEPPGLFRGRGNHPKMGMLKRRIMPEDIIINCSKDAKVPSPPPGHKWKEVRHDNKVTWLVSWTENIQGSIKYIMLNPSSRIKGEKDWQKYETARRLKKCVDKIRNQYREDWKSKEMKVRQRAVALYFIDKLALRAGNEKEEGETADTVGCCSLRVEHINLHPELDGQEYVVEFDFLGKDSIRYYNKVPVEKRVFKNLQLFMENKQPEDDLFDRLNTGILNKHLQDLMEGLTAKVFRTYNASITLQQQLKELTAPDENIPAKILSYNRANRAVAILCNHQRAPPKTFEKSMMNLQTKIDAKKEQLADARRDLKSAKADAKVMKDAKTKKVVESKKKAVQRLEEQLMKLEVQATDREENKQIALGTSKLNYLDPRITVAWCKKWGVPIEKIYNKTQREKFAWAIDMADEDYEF

Structure (SMILES): CC[C@@]1(O)C(=O)OCc2c1cc1n(c2=O)Cc2cc3c(/C=C/c4ccccc4)cccc3nc2-1
- IC50 (L1210): 15.8 nM
- IC50 (DNA topoisomerase 1): > 100 µM

Structure (SMILES): CC[C@@]1(O)C(=O)OCc2c1cc1n(c2=O)Cc2cc3c(CCC(=O)OC)cccc3nc2-1
- IC50 (L1210): 6.2 nM
- IC50 (DNA topoisomerase 1): 41.8 µM

- IC50 (DNA topoisomerase 1): 1.8 µM
Structure (SMILES): CC[C@@]1(O)C(=O)OCc2c1cc1n(c2=O)Cc2cc3c(N)cccc3nc2-1 [9-AMINOCAMPTOTHECIN]

Structure (SMILES): CC[C@@]1(O)C(=O)OCc2c1cc1n(c2=O)Cc2cc3cc(/C=C/C(=O)OC)ccc3nc2-1
- IC50 (L1210): 62.3 nM
- IC50 (DNA topoisomerase 1): > 100 µM

Structure (SMILES): CC[C@@]1(O)C(=O)OCc2c1cc1n(c2=O)Cc2cc3c(CCc4ccccc4)cccc3nc2-1
- IC50 (L1210): 16.3 nM
- IC50 (DNA topoisomerase 1): > 100 µM

Structure (SMILES): CC[C@@]1(O)C(=O)OCc2c1cc1n(c2=O)Cc2cc3c(/C=C(\NC(C)=O)C(=O)OC)cccc3nc2-1
- IC50 (L1210): 1180 nM
- IC50 (DNA topoisomerase 1): 31.9 µM

Structure (SMILES): CC[C@@]1(O)C(=O)OCc2c1cc1n(c2=O)Cc2cc3c(/C=C/C(N)=O)cccc3nc2-1
- IC50 (L1210): 121 nM
- IC50 (DNA topoisomerase 1): 3.2 µM

Structure (SMILES): CC[C@@]1(O)C(=O)OCc2c1cc1n(c2=O)Cc2cc3c(CC(NC(C)=O)C(=O)OC)cccc3nc2-1 (some centres undefined)
- IC50 (L1210): 183 nM
- IC50 (DNA topoisomerase 1): 11.3 µM

Structure (SMILES): C=Cc1cccc2nc3c(cc12)Cn1c-3cc2c(c1=O)COC(=O)[C@]2(O)CC
- IC50 (L1210): 7.5 nM
- IC50 (DNA topoisomerase 1): 4.2 µM

Structure (SMILES): CC[C@@]1(O)C(=O)OCc2c1cc1n(c2=O)Cc2cc3c(/C=C/C(=O)OC)cccc3nc2-1
- IC50 (L1210): 7.6 nM
- IC50 (DNA topoisomerase 1): 6.7 µM
